Values quoted from earlier work as cited in US20140212465A1, “TREATMENT AND PREVENTION OF DENTAL PATHOLOGY IN HUMANS AND NON-HUMAN ANIMALS” (priority 2011, published 2014).

Settings: aqueous environment

[Ca+2].[OH-].[OH-] [calcium hydroxide]
pH: 12.5
